{"source": "ChEMBL document CHEMBL1821572", "about": "“Discovery of a novel series of selective HCN1 blockers” (Bioorg Med Chem Lett, 2011)", "key": {"[1]": {"organism": "Homo sapiens", "assay": "Selectivity for human HCN1 over human HCN4"}, "[2]": {"target": "T1, Potassium/sodium hyperpolarization-activated cyclic nucleotide-gated channel 1 (Homo sapiens, UniProt O60741)", "T1 sequence (O60741 whole entry)": "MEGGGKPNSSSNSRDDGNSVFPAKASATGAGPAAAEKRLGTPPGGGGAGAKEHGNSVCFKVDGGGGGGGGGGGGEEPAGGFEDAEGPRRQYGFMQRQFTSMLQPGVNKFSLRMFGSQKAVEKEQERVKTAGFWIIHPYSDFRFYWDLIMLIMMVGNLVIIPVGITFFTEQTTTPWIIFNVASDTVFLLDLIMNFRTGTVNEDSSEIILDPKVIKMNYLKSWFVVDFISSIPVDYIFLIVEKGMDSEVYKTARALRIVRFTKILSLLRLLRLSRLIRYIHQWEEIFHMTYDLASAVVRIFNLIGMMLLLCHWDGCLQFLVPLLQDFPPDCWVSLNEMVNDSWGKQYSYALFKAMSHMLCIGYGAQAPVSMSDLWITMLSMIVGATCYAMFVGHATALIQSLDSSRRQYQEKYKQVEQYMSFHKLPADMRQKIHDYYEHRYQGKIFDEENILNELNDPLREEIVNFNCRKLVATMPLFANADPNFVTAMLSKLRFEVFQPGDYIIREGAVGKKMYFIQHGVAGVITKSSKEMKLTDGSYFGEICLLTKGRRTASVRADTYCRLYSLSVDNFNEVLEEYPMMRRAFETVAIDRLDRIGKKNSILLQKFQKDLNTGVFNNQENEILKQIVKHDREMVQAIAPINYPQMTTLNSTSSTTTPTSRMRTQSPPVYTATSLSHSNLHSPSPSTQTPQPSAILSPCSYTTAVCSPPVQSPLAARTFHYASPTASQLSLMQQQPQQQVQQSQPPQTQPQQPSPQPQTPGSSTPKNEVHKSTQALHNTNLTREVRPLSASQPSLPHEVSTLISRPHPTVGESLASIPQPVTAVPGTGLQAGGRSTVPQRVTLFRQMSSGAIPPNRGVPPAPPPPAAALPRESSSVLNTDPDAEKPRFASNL", "assay": "Inhibition of human HCN1 heterologously expressed in HEK-293 cells after 30 mins by VIPR assay", "type": "cell-based, HEK293"}, "[3]": {"assay": "Half life in human liver microsomes", "type": "ADME, Microsome"}, "[4]": {"target": "T2, Potassium/sodium hyperpolarization-activated cyclic nucleotide-gated channel 2 (Homo sapiens, UniProt Q9UL51)", "T2 sequence (Q9UL51 whole entry)": "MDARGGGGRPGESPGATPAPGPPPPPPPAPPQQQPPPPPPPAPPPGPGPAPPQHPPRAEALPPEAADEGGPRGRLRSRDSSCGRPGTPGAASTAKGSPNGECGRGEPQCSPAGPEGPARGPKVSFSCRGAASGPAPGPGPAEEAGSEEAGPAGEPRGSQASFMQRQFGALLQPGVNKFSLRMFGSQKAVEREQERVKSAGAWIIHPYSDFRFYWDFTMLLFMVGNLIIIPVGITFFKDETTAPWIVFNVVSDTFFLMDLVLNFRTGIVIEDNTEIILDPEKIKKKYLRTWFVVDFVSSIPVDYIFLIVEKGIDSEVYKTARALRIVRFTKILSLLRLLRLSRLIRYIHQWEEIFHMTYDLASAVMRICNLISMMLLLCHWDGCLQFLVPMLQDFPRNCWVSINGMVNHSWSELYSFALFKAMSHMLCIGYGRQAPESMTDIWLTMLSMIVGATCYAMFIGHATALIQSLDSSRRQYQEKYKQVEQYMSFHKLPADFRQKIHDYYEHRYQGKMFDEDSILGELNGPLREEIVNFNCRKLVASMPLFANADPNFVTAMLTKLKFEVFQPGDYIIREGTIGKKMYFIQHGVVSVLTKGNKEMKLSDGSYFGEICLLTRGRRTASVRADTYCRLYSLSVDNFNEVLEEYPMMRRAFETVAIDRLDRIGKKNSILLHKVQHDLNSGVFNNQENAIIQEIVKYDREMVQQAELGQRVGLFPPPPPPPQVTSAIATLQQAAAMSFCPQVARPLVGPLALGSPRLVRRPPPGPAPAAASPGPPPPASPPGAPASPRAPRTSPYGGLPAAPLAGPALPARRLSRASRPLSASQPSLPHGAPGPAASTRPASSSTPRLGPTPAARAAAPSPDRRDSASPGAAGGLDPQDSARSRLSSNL", "assay": "Inhibition of human HCN2 heterologously expressed in HEK-293 cells after 30 mins by VIPR assay", "type": "cell-based, HEK293"}, "[5]": {"target": "T3, Potassium/sodium hyperpolarization-activated cyclic nucleotide-gated channel 3 (Homo sapiens, UniProt Q9P1Z3)", "T3 sequence (Q9P1Z3 whole entry)": "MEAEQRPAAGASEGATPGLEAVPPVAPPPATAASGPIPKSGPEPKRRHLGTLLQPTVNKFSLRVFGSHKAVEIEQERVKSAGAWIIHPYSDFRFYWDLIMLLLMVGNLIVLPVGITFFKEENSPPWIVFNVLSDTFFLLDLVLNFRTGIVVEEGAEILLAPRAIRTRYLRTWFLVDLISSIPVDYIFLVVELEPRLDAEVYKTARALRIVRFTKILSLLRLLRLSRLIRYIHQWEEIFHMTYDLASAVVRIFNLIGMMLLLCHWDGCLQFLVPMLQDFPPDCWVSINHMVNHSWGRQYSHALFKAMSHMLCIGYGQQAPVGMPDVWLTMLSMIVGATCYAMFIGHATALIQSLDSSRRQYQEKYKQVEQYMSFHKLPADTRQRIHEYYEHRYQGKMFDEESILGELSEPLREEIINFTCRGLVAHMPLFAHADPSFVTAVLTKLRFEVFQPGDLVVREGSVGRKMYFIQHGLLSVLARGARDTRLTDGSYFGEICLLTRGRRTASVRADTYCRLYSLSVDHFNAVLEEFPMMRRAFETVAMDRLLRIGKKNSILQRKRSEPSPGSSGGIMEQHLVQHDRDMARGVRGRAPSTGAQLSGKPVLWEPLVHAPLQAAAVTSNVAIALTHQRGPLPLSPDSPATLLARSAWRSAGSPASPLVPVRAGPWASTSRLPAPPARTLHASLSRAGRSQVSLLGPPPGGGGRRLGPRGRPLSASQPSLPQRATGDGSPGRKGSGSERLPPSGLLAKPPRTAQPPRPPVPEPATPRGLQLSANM", "assay": "Inhibition of human HCN3 heterologously expressed in HEK-293 cells after 30 mins by VIPR assay", "type": "cell-based, HEK293"}, "[6]": {"system": "Mus musculus", "assay": "Antiallodynic activity in ip dosed C57BL/6 mouse spared-nerve injury model assessed as reduction of tactile allodynia after 60 mins", "type": "functional", "conditions": "C57BL/6, ip, 1 h"}, "[7]": {"organism": "Mus musculus", "assay": "Toxicity in C57BL/6 mouse assessed as induction of bradycardia after 50 mins by ECG study", "type": "organism-based", "conditions": "in vivo"}}}
{"molecule": "CCOc1ccccc1C(=O)NCC1(N2CCNCC2)CCCCC1", "values": [{"measurement": "Selectivity ratio", "setting": "[1]", "value": 10}, {"measurement": "IC50", "setting": "[2]", "value": 0.398, "unit": "µM"}, {"measurement": "half-life", "setting": "[3]", "value": 3.92, "unit": "h"}, {"measurement": "IC50", "setting": "[4]", "value": 5.01, "unit": "µM"}, {"measurement": "IC50", "setting": "[5]", "value": 3.16, "unit": "µM"}, {"measurement": "ED50", "setting": "[6]", "value": 6, "unit": "mg/kg"}, {"measurement": "ED20", "setting": "[7]", "value": 25, "unit": "mg/kg"}]}
